In data set [1] the test system is AR mRNA. The experiment in a line: Dose-dependent antisense inhibition of human AR in HuVEC cells (electroporation, qRT-PCR RTS3559, IC50). The following applies: HuVEC. It is filed as cell-based. A digest of the protocol: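 HuVEC cells dosed with antisense oligonucleotides by electroporation and treated approximately 16 hours. AR mRNA quantified by real-time qPCR with primer probe set RTS3559 and normalised to total RNA by RIBOGREEN; IC50 from dose-response.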

The subject of data set [2] is AR mRNA. The experiment in a line: AR mRNA in liver, heart, skeletal muscle, kidney, prostate of cynomolgus monkeys. The format is in vivo. The following applies: cynomolgus monkey, 40 mg/kg subcutaneously; for Percent Inhibition of AR mRNA relative to the PBS control, Heart: weeks 1 to 6, Heart; for Percent Inhibition of AR mRNA relative to the PBS control, Kidney: weeks 1 to 6, Kidney; for Percent Inhibition of AR mRNA relative to the PBS control, Liver: weeks 1 to 6, Liver; for Percent Inhibition of AR mRNA relative to the PBS control, Prostate: weeks 1 to 6, Prostate; for Percent Inhibition of AR mRNA relative to the PBS control, Skeletal Muscle: weeks 1 to 6, Skeletal Muscle. On the procedure:
Cynomolgus monkeys were treated with ISIS antisense oligonucleotides selected from studies described above. Antisense oligonucleotide efficacy and tolerability were evaluated. The human antisense oligonucleotides tested are cross-reactive with the rhesus genomic sequence (GENBANK Accession No. NW_001218131.1 truncated from nucleotides 134001 to 308000 and designated herein as SEQ ID NO: 189). The target start site and target region of each oligonucleotide to SEQ ID NO: 189, as well as the details of their chemistry and sequence, is presented in Table 133.
RNA was extracted from liver, heart, skeletal muscle, kidney, and prostate tissues for real-time PCR analysis of AR using primer probe set RTS3559. The results were normalized to RIBOGREEN®. Results are presented as percent inhibition of AR mRNA, relative to PBS control.

Data set [3] concerns AR mRNA. The data set can be described thus: Antisense inhibition of human AR in HuVEC cells, single concentration (electroporation, qRT-PCR RTS3559). The format is cell-based. Conditions: electroporation, approximately 24 hours, relative to untreated control. In outline:
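AR mRNA levels were measured with human primer-probe set RTS3559 and adjusted for total RNA (RIBOGREEN). Cells were HuVEC, with each antisense oligonucleotide delivered by electroporation at one concentration.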

The test system of data set [4] is AR mRNA. The experiment in a line: AR mRNA in LnCaP cells by free uptake (hAR_LTS00943). Conditions: 24 hrs. The format is cell-based, human. On the procedure: Cells were plated at a concentration of 4,000 cells/well in 96-well plates. ISIS oligonucleotides, specified in Table 68, were added individually at 0.02 μM, 0.10 μM, 0.50 μM, 2.50 μM, or 10.00 μM. After an incubation period of 24 hrs, mRNA levels were measured using primer probe set hAR_LTS00943.

[5] abbreviates: Table 35, electroporation, approximately 16 hours.
Setting [6] is: Table 24, 1,000 nM oligonucleotide.
Where [7] appears, read: Table 36, electroporation, approximately 16 hours.
The mark [8] stands for this setting: Table 33, electroporation, approximately 16 hours.

Oligonucleotides are written 5' to 3', each unit as a sugar letter and its base; * is a phosphorothioate linkage, no mark a phosphodiester; rarer units and linkages stand in square brackets, end groups in braces. Plain capitals give the bases only. e = 2'-O-(2-methoxyethyl) (MOE); k = constrained ethyl (cEt); [5mC] = 5-methylcytosine; d = 2'-deoxy (DNA)

Take “584149 (kG*kT*k[5mC]*dA*dA*dT*dA*dT*d[5mC]*dA*dA*dA*dG*k[5mC]*kA*k[5mC]) [compound 584149]”: in the data set on AR mRNA [1] (setting [5]), the “percent inhibition of AR, 46.9 nM” value came out at 11%; the “percent inhibition of AR, 187.5 nM” value is recorded as 37%; the “percent inhibition of AR, 750.0 nM” value turned out to be 68%; the “percent inhibition of AR, 3000.0 nM” value was found to be 89%. The substance also came in with an IC50 in the data set with AR mRNA [1] (setting [5]) of 0.31 µM. Besides, in the data set on AR mRNA [2], the “Percent Inhibition of AR mRNA relative to the PBS control, Heart” value was found to be 33%; the “Percent Inhibition of AR mRNA relative to the PBS control, Kidney” value turned out to be 77%; the “Percent Inhibition of AR mRNA relative to the PBS control, Liver” value was 93%; the “Percent Inhibition of AR mRNA relative to the PBS control, Prostate” value is 45%. Also, in the data set on AR mRNA [2], the “Percent Inhibition of AR mRNA relative to the PBS control, Skeletal Muscle” value worked out at 63%. Further, the “% inhibition” value in the data set with AR mRNA [3] (setting [6]) is 85%. Besides, the “Percent inhibition of AR mRNA” value in the data set with AR mRNA [4] (0.02 μM) is 0%. The “Percent inhibition of AR mRNA” value with AR mRNA [4] (0.1 μM) was 0%. For the same substance, in the data set on AR mRNA [4] (0.5 μM), the “Percent inhibition of AR mRNA” value was 0%. Further, in the data set with AR mRNA [4] (10 μM), the “Percent inhibition of AR mRNA” value came out at 39%.

“584468 (k[5mC]*kA*kT*dT*dG*dT*dA*d[5mC]*dT*dA*dT*dG*d[5mC]*k[5mC]*kA*kG) [compound 584468]”: in the data set on AR mRNA [1] (setting [7]), the “percent inhibition of AR, 46.9 nM” value was 9%; the “percent inhibition of AR, 187.5 nM” value is given as 26%; the “percent inhibition of AR, 750.0 nM” value amounted to 60%; the “percent inhibition of AR, 3000.0 nM” value was 90%. This substance gave an IC50 in the data set on AR mRNA [1] (setting [7]) of 0.37 µM. Also, in the data set on AR mRNA [2], the “Percent Inhibition of AR mRNA relative to the PBS control, Heart” value worked out at 33%; the “Percent Inhibition of AR mRNA relative to the PBS control, Kidney” value worked out at 88%; the “Percent Inhibition of AR mRNA relative to the PBS control, Liver” value was found to be 97%; the “Percent Inhibition of AR mRNA relative to the PBS control, Prostate” value is listed as 50%. The “Percent Inhibition of AR mRNA relative to the PBS control, Skeletal Muscle” value in the data set on AR mRNA [2] was 53%. The “% inhibition” value in the data set on AR mRNA [3] (Table 27, 1,000 nM oligonucleotide) worked out at 64%. Further, the “Percent inhibition of AR mRNA” value in the data set with AR mRNA [4] (0.02 μM) was determined as 0%. Moreover, the “Percent inhibition of AR mRNA” value in the data set on AR mRNA [4] (0.1 μM) is recorded as 0%. In addition, the “Percent inhibition of AR mRNA” value in the data set on AR mRNA [4] (0.5 μM) was determined as 10%. Moreover, the “Percent inhibition of AR mRNA” value in the data set on AR mRNA [4] (10 μM) was found to be 73%.

With “584269 (k[5mC]*k[5mC]*kT*dT*dA*dT*dG*dG*dA*dT*dG*d[5mC]*dT*kG*k[5mC]*kT) [compound 584269]”, in the data set on AR mRNA [1] (setting [7]), the “percent inhibition of AR, 46.9 nM” value came to 6%; the “percent inhibition of AR, 187.5 nM” value turned out to be 26%; the “percent inhibition of AR, 750.0 nM” value is 69%; the “percent inhibition of AR, 3000.0 nM” value is 92%. Inhibition with AR mRNA [1] (setting [7]) was half-maximal at 0.34 µM (IC50). Moreover, in the data set on AR mRNA [2], the “Percent Inhibition of AR mRNA relative to the PBS control, Heart” value amounted to 72%; the “Percent Inhibition of AR mRNA relative to the PBS control, Kidney” value amounted to 92%; the “Percent Inhibition of AR mRNA relative to the PBS control, Liver” value stood at 96%; the “Percent Inhibition of AR mRNA relative to the PBS control, Prostate” value turned out to be 41%. In addition, the “Percent Inhibition of AR mRNA relative to the PBS control, Skeletal Muscle” value with AR mRNA [2] was determined as 76%. The “% inhibition” value in the data set with AR mRNA [3] (Table 25, 1,000 nM oligonucleotide) is 57%. Further, in the data set with AR mRNA [4] (0.02 μM), the “Percent inhibition of AR mRNA” value was determined as 0%. In addition, the “Percent inhibition of AR mRNA” value with AR mRNA [4] (0.1 μM) was 0%. For the same substance, the “Percent inhibition of AR mRNA” value in the data set with AR mRNA [4] (0.5 μM) came to 0%. In the data set on AR mRNA [4] (10 μM), the “Percent inhibition of AR mRNA” value is 23%.

Consider “584163 (kG*kA*kA*d[5mC]*dA*dT*dT*dA*dT*dT*dA*dG*dG*k[5mC]*kT*kA) [compound 584163]”, for which, in the data set with AR mRNA [1] (setting [5]), the “percent inhibition of AR, 46.9 nM” value was 19%; the “percent inhibition of AR, 187.5 nM” value worked out at 37%; the “percent inhibition of AR, 750.0 nM” value came out at 74%; the “percent inhibition of AR, 3000.0 nM” value was determined as 90%. The substance also registered an IC50 with AR mRNA [1] (setting [5]) of 0.25 µM. Further, in the data set on AR mRNA [2], the “Percent Inhibition of AR mRNA relative to the PBS control, Heart” value stood at 53%; the “Percent Inhibition of AR mRNA relative to the PBS control, Kidney” value was found to be 90%; the “Percent Inhibition of AR mRNA relative to the PBS control, Liver” value was found to be 98%; the “Percent Inhibition of AR mRNA relative to the PBS control, Prostate” value was determined as 58%. The “Percent Inhibition of AR mRNA relative to the PBS control, Skeletal Muscle” value in the data set on AR mRNA [2] came out at 73%. Besides, the “% inhibition” value with AR mRNA [3] (setting [6]) came out at 81%. The “Percent inhibition of AR mRNA” value with AR mRNA [4] (0.02 μM) turned out to be 0%. Further, the “Percent inhibition of AR mRNA” value with AR mRNA [4] (0.1 μM) amounted to 0%. In the data set with AR mRNA [4] (0.5 μM), the “Percent inhibition of AR mRNA” value was determined as 19%. For the same substance, in the data set with AR mRNA [4] (10 μM), the “Percent inhibition of AR mRNA” value is on record as 70%.

Regarding “583918 (kA*kG*kT*d[5mC]*dG*d[5mC]*dG*dA*d[5mC]*dT*d[5mC]*dT*dG*kG*kT*kA) [compound 583918]”, in the data set on AR mRNA [1] (setting [8]), the “percent inhibition of AR, 46.9 nM” value came to 16%; the “percent inhibition of AR, 187.5 nM” value is 47%; the “percent inhibition of AR, 750.0 nM” value came to 68%; the “percent inhibition of AR, 3000.0 nM” value stood at 86%. For the same substance, in the data set with AR mRNA [1] (setting [8]), the IC50 turned out to be 0.3 µM. In the data set on AR mRNA [2], the “Percent Inhibition of AR mRNA relative to the PBS control, Heart” value was 76%; the “Percent Inhibition of AR mRNA relative to the PBS control, Kidney” value worked out at 73%; the “Percent Inhibition of AR mRNA relative to the PBS control, Liver” value came to 88%; the “Percent Inhibition of AR mRNA relative to the PBS control, Prostate” value amounted to 58%. Further, the “Percent Inhibition of AR mRNA relative to the PBS control, Skeletal Muscle” value in the data set on AR mRNA [2] was 74%. Further, the “% inhibition” value with AR mRNA [3] (Table 21, 500 nM oligonucleotide) amounted to 47%. Moreover, the “Percent inhibition of AR mRNA” value in the data set on AR mRNA [4] (0.02 μM) was 8%. In the data set on AR mRNA [4] (0.1 μM), the “Percent inhibition of AR mRNA” value was 0%. The “Percent inhibition of AR mRNA” value in the data set on AR mRNA [4] (0.5 μM) is listed as 0%. The “Percent inhibition of AR mRNA” value with AR mRNA [4] (10 μM) was 13%.

With “579671 (antisense eT*kT*kG*eA*kT*kT*dT*dA*dA*dT*dG*dG*dT*kT*kG*k[5mC]) [compound 579671]”, the “percent inhibition of AR” value in the data set on AR mRNA [1] (62.5 nM, ~16 h, Table 11) worked out at 6%; in the data set on AR mRNA [1] (125.0 nM, ~16 h, Table 11), 40%; with AR mRNA [1] (500.0 nM, ~16 h, Table 11) it was 57%; in the data set on AR mRNA [1] (1000.0 nM, ~16 h, Table 11), 77%. Further, the midpoint of inhibition in the data set on AR mRNA [1] (~16 h, Table 11), the IC50, lay at 0.288 µM. Besides, the “Percent Inhibition of AR mRNA relative to the PBS control, Heart” value in the data set on AR mRNA [2] is recorded as 24%. In the data set on AR mRNA [2], the “Percent Inhibition of AR mRNA relative to the PBS control, Kidney” value was found to be 53%. Further, the “Percent Inhibition of AR mRNA relative to the PBS control, Liver” value in the data set with AR mRNA [2] stood at 33%. In addition, in the data set on AR mRNA [2], the “Percent Inhibition of AR mRNA relative to the PBS control, Skeletal Muscle” value came to 31%. Also, the “Percent inhibition of AR mRNA” value turned out to be 15% in the data set on AR mRNA [4] (0.02 μM), 0% in the data set with AR mRNA [4] (0.1 μM), 19% in the data set with AR mRNA [4] (0.5 μM) and 71% with AR mRNA [4] (10 μM).

Source of the values: patent publication USRE48461E1, “Modulation of androgen receptor expression” (Ionis Pharmaceuticals, Inc., priority 2012, dated 2021).
